Measurements reported in ChEMBL document CHEMBL5154741, “Antibacterial alkylguanidino ureas: Molecular simplification approach, searching for membrane-based MoA” (Eur J Med Chem, 2022).
≈ marks a conversion by molar mass, not a printed value. Calls of active or inactive are those of the source. The rule behind the calls is not given here.

Assays:
Cell membrane [1] = experiment: Disruption of membrane integrity in Acinetobacter baumannii ATCC 17978 assessed as increase in PI uptake at 16 ug/ml measured after 15 mins by SYTO9/PI staining based fluorometric analysis; conditions: dose 16.0 µg/ml
Bacillus subtilis = experiment: Antibacterial activity against Bacillus subtilis ATCC 6633 assessed as bacterial growth inhibition incubated for 18 hrs by CLSI based micro-dilution broth method; format: functional
Enterococcus faecalis = experiment: Antibacterial activity against Enterococcus faecalis ATCC 19433 assessed as bacterial growth inhibition incubated for 18 hrs by micro-dilution broth method; format: functional
Streptococcus pyogenes = experiment: Antibacterial activity against Streptococcus pyogenes ATCC 12344 assessed as bacterial growth inhibition incubated for 18 hrs by micro-dilution broth method; format: functional
Staphylococcus aureus = experiment: Antibacterial activity against Staphylococcus aureus ATCC 25923 assessed as bacterial growth inhibition incubated for 18 hrs by micro-dilution broth method; format: functional
Escherichia coli = experiment: Antibacterial activity against Escherichia coli CCUG assessed as bacterial growth inhibition incubated for 18 hrs by micro-dilution broth method; format: functional
Klebsiella pneumoniae [2] = experiment: Antibacterial activity against Klebsiella pneumoniae ATCC 13833 assessed as bacterial growth inhibition incubated for 18 hrs by micro-dilution broth method; format: functional
Acinetobacter baumannii [3] = experiment: Antibacterial activity against Acinetobacter baumannii ATCC 17978 assessed as bacterial growth inhibition incubated for 18 hrs by micro-dilution broth method; format: functional
Pseudomonas aeruginosa = experiment: Antibacterial activity against Pseudomonas aeruginosa ATCC 27853 assessed as bacterial growth inhibition incubated for 18 hrs by micro-dilution broth method; format: functional
Enterobacter cloacae = experiment: Antibacterial activity against Enterobacter cloacae VA-417/02 assessed as bacterial growth inhibition incubated for 18 hrs by CLSI based micro-dilution broth method; format: functional
Klebsiella pneumoniae [4] = experiment: Antibacterial activity against pan drug-resistant Klebsiella pneumoniae S1-081Rb assessed as bacterial growth inhibition incubated for 18 hrs by CLSI based micro-dilution broth method; format: functional
Acinetobacter baumannii [5] = experiment: Antibacterial activity against Acinetobacter baumannii AC-54/97 assessed as bacterial growth inhibition incubated for 18 hrs by CLSI based micro-dilution broth method; format: functional
Lipid bilayer = experiment: Binding affinity to bacterial membrane mimic POPG large unilamellar vesicle assessed as bathochromic shift at 125 uM measured at t = 0 by UV-Vis spectrophotometric analysis
[6] = Apparent permeability of the compound across bacterial inner membrane mimic PC-phospholipids in PBS buffer assessed as membrane retention at pH 7.4 incubated for 5 hrs by PAMPA based UV-Vis spectrophotometric analysis; format: ADME, cell membranes; conditions: pH 7.4, 5 h
[7] = Apparent permeability of the compound across bacterial inner membrane mimic pure POPG in PBS buffer at pH 7.4 incubated for 5 hrs by PAMPA based UV-Vis spectrophotometric analysis; format: ADME
[8] = Apparent permeability of the compound across bacterial inner membrane mimic pure POPG in PBS buffer assessed as membrane retention at pH 7.4 incubated for 5 hrs by PAMPA based UV-Vis spectrophotometric analysis; format: ADME, cell membranes; conditions: pH 7.4, 5 h
[9] = Apparent permeability of the compound across bacterial inner membrane mimic POPE/POPG (6:4) in PBS buffer at pH 7.4 incubated for 5 hrs by PAMPA based UV-Vis spectrophotometric analysis; format: ADME
[10] = Apparent permeability of the compound across bacterial inner membrane mimic POPE/POPG (6:4) in PBS buffer assessed as membrane retention at pH 7.4 incubated for 5 hrs by PAMPA based UV-Vis spectrophotometric analysis; format: ADME, cell membranes; conditions: pH 7.4, 5 h
Cell membrane [11] = experiment: Disruption of membrane integrity in Bacillus subtilis ATCC 6633 assessed as increase in PI uptake at 16 ug/ml measured after 15 mins by SYTO9/PI staining based fluorometric analysis; conditions: dose 16.0 µg/ml
Cell membrane [12] = experiment: Disruption of membrane integrity in Pseudomonas aeruginosa ATCC 27853 assessed as increase in PI uptake at 16 ug/ml measured every 15 mins for 6 hrs by SYTO9/PI staining based fluorometric analysis; conditions: dose 16.0 µg/ml
Cell membrane [13] = experiment: Disruption of membrane integrity in Enterococcus faecalis ATCC 19433 assessed as increase in PI uptake at 16 ug/ml measured after 15 mins by SYTO9/PI staining based fluorometric analysis; conditions: dose 16.0 µg/ml
Cell membrane [14] = experiment: Disruption of membrane integrity in Escherichia coli MG1655 assessed as increase in PI uptake at 16 ug/ml measured every 15 mins for 6 hrs by SYTO9/PI staining based fluorometric analysis; conditions: dose 16.0 µg/ml
Cell membrane [15] = experiment: Disruption of membrane integrity in Enterococcus faecalis ATCC 19433 assessed as increase in PI positive cells at 16 ug/ml measured after 1 hr by SYTO9/PI staining based confocal laser scanning microscope analysis; format: subcellular; conditions: dose 16.0 µg/ml
Cell membrane [16] = experiment: Disruption of membrane integrity in Bacillus subtilis ATCC 6633 assessed as increase in PI positive cells at 16 ug/ml measured after 1 hr by SYTO9/PI staining based confocal laser scanning microscope analysis; format: subcellular; conditions: dose 16.0 µg/ml
Cell membrane [17] = experiment: Disruption of membrane integrity in Acinetobacter baumannii ATCC 17978 assessed as increase in PI positive cells at 16 ug/ml measured after 1 hr by SYTO9/PI staining based confocal laser scanning microscope analysis; conditions: dose 16.0 µg/ml
Cell membrane [18] = experiment: Disruption of membrane integrity in Escherichia coli MG1655 assessed as increase in PI positive cells at 16 ug/ml measured after 1 hr by SYTO9/PI staining based confocal laser scanning microscope analysis; format: subcellular; conditions: dose 16.0 µg/ml
Cell membrane [19] = experiment: Disruption of membrane integrity in Staphylococcus aureus ATCC 25923 assessed as increase in PI positive cells at 16 ug/ml measured after 1 hr by SYTO9/PI staining based confocal laser scanning microscope analysis; format: subcellular; conditions: dose 16.0 µg/ml
[20] = Hemolytic activity against human RBC at 1 ug/ml incubated for 30 mins (reference value: 0%); format: toxicity, cell-based, Erythrocyte; conditions: human red blood cells (erythrocytes), at 1 µg/mL, read-out: Activity
[21] = Hemolytic activity against human RBC at 2 ug/ml incubated for 30 mins (reference value: 0%); format: toxicity, cell-based, Erythrocyte; conditions: human red blood cells (erythrocytes), at 2 µg/mL, read-out: Activity
[22] = Hemolytic activity against human RBC at 8 ug/ml incubated for 30 mins (reference value: 0%); format: toxicity, cell-based, Erythrocyte; conditions: human red blood cells (erythrocytes), at 8 µg/mL, read-out: Activity
[23] = Hemolytic activity against human RBC at 16 ug/ml incubated for 30 mins relative to control; format: toxicity, cell-based, Erythrocyte; conditions: human red blood cells (erythrocytes), at 16 µg/mL, read-out: Activity
[24] = Hemolytic activity against human RBC at 32 ug/ml incubated for 30 mins (reference value: 0%); format: toxicity, cell-based, Erythrocyte; conditions: human red blood cells (erythrocytes), at 32 µg/mL, read-out: Activity
Cell membrane [25] = experiment: Disruption of membrane integrity in Escherichia coli MG1655 assessed as increase in PI uptake at 16 ug/ml measured after 1 hr by SYTO9/PI staining based fluorometric analysis; format: subcellular; conditions: dose 16.0 µg/ml
Cell membrane [26] = experiment: Disruption of membrane integrity in Pseudomonas aeruginosa ATCC 27853 assessed as increase in PI uptake at 16 ug/ml measured after 1 hr by SYTO9/PI staining based fluorometric analysis; format: subcellular; conditions: dose 16.0 µg/ml
Cell membrane [27] = experiment: Disruption of membrane integrity in Staphylococcus aureus ATCC 25923 assessed as increase in PI uptake at 16 ug/ml measured after 1 hr by SYTO9/PI staining based fluorometric analysis; conditions: dose 16.0 µg/ml

Structure (SMILES): N=C(N)NCCCCCCCCN(CCCCCCCCNC(=N)NCC1CC1)C(=O)N(CCCCCCCCNC(=N)NCC1CC1)CCCCCCCCNC(=N)NCC1CC1.O=C(O)C(F)(F)F
- Activity (Cell membrane [1]): Active
- MIC (Bacillus subtilis): 0.5 µg/mL
- MIC (Enterococcus faecalis): 1 µg/mL
- MIC (Streptococcus pyogenes): 0.25 µg/mL
- MIC (Staphylococcus aureus): 0.5 µg/mL
- MIC (Escherichia coli): 0.5 µg/mL
- MIC (Klebsiella pneumoniae [2]): 1 µg/mL
- MIC (Acinetobacter baumannii [3]): 4 µg/mL
- MIC (Pseudomonas aeruginosa): 8 µg/mL
- MBC (Enterobacter cloacae): 2 µg/mL
- MIC (Enterobacter cloacae): 2 µg/mL
- MBC (Klebsiella pneumoniae [4]): 2 µg/mL
- MIC (Klebsiella pneumoniae [4]): 2 µg/mL
- MBC (Acinetobacter baumannii [5]): 8 µg/mL
- MIC (Acinetobacter baumannii [5]): 8 µg/mL
- Activity (Lipid bilayer): Active
- R% [6]: 0%
- Papp at 5 h [7]: 0.26 ×10⁻⁶ cm/s
- R% [8]: 56%
- Papp at 5 h [9]: 0.3 ×10⁻⁶ cm/s
- R% [10]: 40.8%
- Activity (Cell membrane [11]): Active
- Activity (Cell membrane [12]): Active
- Activity (Cell membrane [13]): Active
- Activity (Cell membrane [14]): Active
- Activity (Cell membrane [15]): Active
- Activity (Cell membrane [16]): Active
- Activity (Cell membrane [17]): Active
- Activity (Cell membrane [18]): Active
- Activity (Cell membrane [19]): Active
- hemolysis at 0.5 h, 1 ug/ml [20]: 0%
- hemolysis at 0.5 h, 2 ug/ml [21]: 0%
- hemolysis at 0.5 h, 8 ug/ml [22]: 0%
- hemolysis at 0.5 h, 16 ug/ml [23]: 1.1%
- hemolysis at 0.5 h, 32 ug/ml [24]: 3.3%
- Activity (Cell membrane [25]): Active
- Activity (Cell membrane [26]): Active
- Activity (Cell membrane [27]): Active

Structure (SMILES): N=C(NCCCCCCCCNC(N)=O)NCC1CC1.O=C(O)C(F)(F)F
- Activity (Cell membrane [1]): Active
- MIC (Bacillus subtilis): 1 µg/mL
- MIC (Enterococcus faecalis): 1 µg/mL
- MIC (Streptococcus pyogenes): 0.5 µg/mL
- MIC (Staphylococcus aureus): 1 µg/mL
- MIC (Escherichia coli): 2 µg/mL
- MIC (Klebsiella pneumoniae [2]): 1 µg/mL
- MIC (Acinetobacter baumannii [3]): 16 µg/mL
- MIC (Pseudomonas aeruginosa): 16 µg/mL
- MBC (Enterobacter cloacae): 8 µg/mL
- MIC (Enterobacter cloacae): 4 µg/mL
- MBC (Klebsiella pneumoniae [4]): 4 µg/mL
- MIC (Klebsiella pneumoniae [4]): 4 µg/mL
- MBC (Acinetobacter baumannii [5]): 16 µg/mL
- MIC (Acinetobacter baumannii [5]): 16 µg/mL
- Activity (Lipid bilayer): Active
- R% [6]: 7.7%
- Papp at 5 h [7]: 6.1 ×10⁻⁶ cm/s
- R% [8]: 16%
- Papp at 5 h [9]: 3.48 ×10⁻⁶ cm/s
- R% [10]: 3.2%
- Activity (Cell membrane [11]): Active
- Activity (Cell membrane [12]): Active
- Activity (Cell membrane [13]): Active
- Activity (Cell membrane [14]): Active
- Activity (Cell membrane [15]): Active
- Activity (Cell membrane [16]): Active
- Activity (Cell membrane [17]): Active
- Activity (Cell membrane [18]): Active
- Activity (Cell membrane [19]): Active
- hemolysis at 0.5 h, 1 ug/ml [20]: 0%
- hemolysis at 0.5 h, 2 ug/ml [21]: 0%
- hemolysis at 0.5 h, 8 ug/ml [22]: 0%
- hemolysis at 0.5 h, 16 ug/ml [23]: 0%
- hemolysis at 0.5 h, 32 ug/ml [24]: 0%
- Activity (Cell membrane [25]): Active
- Activity (Cell membrane [26]): Active
- Activity (Cell membrane [27]): Active

Structure (SMILES): CCCCCCCCN(CCCCCCCCNC(=N)NCC1CC1)C(=O)N(CCCCCCNC(=N)NCC1CC1)CCCCCCNC(=N)NCC1CC1
- Activity (Cell membrane [1]): Active
- MIC (Bacillus subtilis): 0.5 µg/mL (≈ 0.636 µM)
- MIC (Enterococcus faecalis): 0.5 µg/mL (≈ 0.636 µM)
- MIC (Streptococcus pyogenes): 1 µg/mL (≈ 1.27 µM)
- MIC (Staphylococcus aureus): 2 µg/mL (≈ 2.54 µM)
- MIC (Escherichia coli): 4 µg/mL (≈ 5.09 µM)
- MIC (Klebsiella pneumoniae [2]): 4 µg/mL (≈ 5.09 µM)
- MIC (Acinetobacter baumannii [3]): 16 µg/mL (≈ 20.3 µM)
- MIC (Pseudomonas aeruginosa): 16 µg/mL (≈ 20.3 µM)
- MBC (Enterobacter cloacae): 8 µg/mL (≈ 10.2 µM)
- MIC (Enterobacter cloacae): 8 µg/mL (≈ 10.2 µM)
- MBC (Klebsiella pneumoniae [4]): 8 µg/mL (≈ 10.2 µM)
- MIC (Klebsiella pneumoniae [4]): 8 µg/mL (≈ 10.2 µM)
- MBC (Acinetobacter baumannii [5]): 8 µg/mL (≈ 10.2 µM)
- MIC (Acinetobacter baumannii [5]): 8 µg/mL (≈ 10.2 µM)
- Activity (Lipid bilayer): Active
- R% [6]: 0%
- Papp at 5 h [7]: 0.18 ×10⁻⁶ cm/s
- R% [8]: 63%
- Papp at 5 h [9]: 0.13 ×10⁻⁶ cm/s
- R% [10]: 65.2%
- Activity (Cell membrane [11]): Active
- Activity (Cell membrane [12]): Active
- Activity (Cell membrane [13]): Active
- Activity (Cell membrane [14]): Active
- Activity (Cell membrane [15]): Active
- Activity (Cell membrane [16]): Active
- Activity (Cell membrane [17]): Active
- Activity (Cell membrane [18]): Active
- Activity (Cell membrane [19]): Active
- hemolysis at 0.5 h, 1 ug/ml [20]: 0%
- hemolysis at 0.5 h, 2 ug/ml [21]: 0%
- hemolysis at 0.5 h, 8 ug/ml [22]: 1.2%
- hemolysis at 0.5 h, 16 ug/ml [23]: 2.4%
- hemolysis at 0.5 h, 32 ug/ml [24]: 8.4%
- Activity (Cell membrane [25]): Active
- Activity (Cell membrane [26]): Active
- Activity (Cell membrane [27]): Active
